Test results from publication PMC5218480 (PLoS ONE, 2017).

System: MV-4-11 cells
Experiment: Gene expression microarray analysis (Affymetrix PrimeView) and GSEA
Type: cell-based, human
Parameters: RFU PODN (11730768_x_at) / Fold change /veh PODN (11730768_x_at) / RFU LINC00158 (11744669_a_at) / Fold change /veh LINC00158 (11744669_a_at) / RFU DUSP10 (11751237_a_at) / Fold change /veh DUSP10 (11751237_a_at) / RFU ID3 (11757404_x_at) / Fold change /veh ID3 (11757404_x_at) / RFU PLEKHG5 (11737974_s_at) / Fold change /veh PLEKHG5 (11737974_s_at) / RFU LRRC4B (11730491_at) / Fold change /veh LRRC4B (11730491_at) / RFU GIMAP4 (11747438_a_at) / Fold change /veh GIMAP4 (11747438_a_at) / RFU KRT8 (11758183_x_at) / Fold change /veh KRT8 (11758183_x_at) / RFU CNN1 (11734310_a_at) / Fold change /veh CNN1 (11734310_a_at) / RFU VPS37D (11726825_at) / Fold change /veh VPS37D (11726825_at) / RFU C10orf10 (11716522_x_at) / Fold change /veh C10orf10 (11716522_x_at) / RFU KIR2DL2 /// KIR2DL4 /// KIR2DL5A /// KIR2DL5B /// KIR2DS1 /// KIR2DS2 /// KIR2DS3 /// KIR2DS4 /// KIR3DL3 /// KIR3DL3 /// KIR3DS1 (11738374_at) / Fold change /veh KIR2DL2 /// KIR2DL4 /// KIR2DL5A /// KIR2DL5B /// KIR2DS1 /// KIR2DS2 /// KIR2DS3 /// KIR2DS4 /// KIR3DL3 /// KIR3DL3 /// KIR3DS1 (11738374_at) / RFU C1QL1 (11718748_at) / Fold change /veh C1QL1 (11718748_at) / RFU TMPRSS4 (11747572_a_at) / Fold change /veh TMPRSS4 (11747572_a_at) / RFU HAMP (11756126_x_at) / Fold change /veh HAMP (11756126_x_at) / RFU RNFT2 (11725882_a_at) / Fold change /veh RNFT2 (11725882_a_at) / RFU NR4A2 (11747474_a_at) / Fold change /veh NR4A2 (11747474_a_at) / RFU ABCC12 (11746883_a_at) / Fold change /veh ABCC12 (11746883_a_at) / RFU TMEM136 (11760407_x_at) / Fold change /veh TMEM136 (11760407_x_at) / RFU CLDN22 /// WWC2 (11732394_at) / Fold change /veh CLDN22 /// WWC2 (11732394_at) / RFU HLA-DPB1 (11760878_x_at) / Fold change /veh HLA-DPB1 (11760878_x_at) / RFU SPINT1 (11716480_a_at) / Fold change /veh SPINT1 (11716480_a_at) / RFU GAP43 (11754022_s_at) / Fold change /veh GAP43 (11754022_s_at) / RFU A4GNT (11735810_at) / Fold change /veh A4GNT (11735810_at) / RFU PRB3 (11715151_x_at) / Fold change /veh PRB3 (11715151_x_at) / RFU TUBB4B (11761932_at) / Fold change /veh TUBB4B (11761932_at) / RFU CAPN14 (11732068_a_at) / Fold change /veh CAPN14 (11732068_a_at) / RFU TMCC2 (11721928_a_at) / Fold change /veh TMCC2 (11721928_a_at) / RFU IRGQ (11745062_a_at) / Fold change /veh IRGQ (11745062_a_at) / RFU FAM174B (11720279_a_at) / Fold change /veh FAM174B (11720279_a_at) / RFU TMPRSS4 (11748680_a_at) / Fold change /veh TMPRSS4 (11748680_a_at) / RFU FAM212B (11763350_a_at) / Fold change /veh FAM212B (11763350_a_at) / RFU PLEKHG5 (11743358_a_at) / Fold change /veh PLEKHG5 (11743358_a_at) / RFU ZSCAN30 (11745921_a_at) / Fold change /veh ZSCAN30 (11745921_a_at) / RFU CMKLR1 (11741424_a_at) / Fold change /veh CMKLR1 (11741424_a_at) / RFU LOC101060620 /// MAPK8IP1 (11723275_at) / Fold change /veh LOC101060620 /// MAPK8IP1 (11723275_at) / RFU SPTSSB (11747773_x_at) / Fold change /veh SPTSSB (11747773_x_at) / RFU PRSS12 (11739890_at) / Fold change /veh PRSS12 (11739890_at) / RFU BIN1 (11741810_x_at) / Fold change /veh BIN1 (11741810_x_at) / RFU WNT11 (11732464_a_at) / Fold change /veh WNT11 (11732464_a_at) / RFU C10orf10 (11716521_a_at) / Fold change /veh C10orf10 (11716521_a_at) / RFU C5orf56 (11738089_at) / Fold change /veh C5orf56 (11738089_at) / RFU CYB561 (11721691_x_at) / Fold change /veh CYB561 (11721691_x_at) / RFU ANKRD19P (11752326_a_at) / Fold change /veh ANKRD19P (11752326_a_at) / RFU OR2T12 /// OR2T33 /// OR2T8 (11738714_s_at) / Fold change /veh OR2T12 /// OR2T33 /// OR2T8 (11738714_s_at) / RFU VCAN (11748164_a_at) / Fold change /veh VCAN (11748164_a_at) / RFU JSRP1 (11732532_at) / Fold change /veh JSRP1 (11732532_at) / RFU KRTAP10-11 (11738290_x_at) / Fold change /veh KRTAP10-11 (11738290_x_at) / RFU MYO3A (11730013_a_at) / Fold change /veh MYO3A (11730013_a_at) / RFU EBF3 (11725865_a_at) / Fold change /veh EBF3 (11725865_a_at) / RFU CAMK2N1 (11719241_x_at) / Fold change /veh CAMK2N1 (11719241_x_at) / RFU C5orf56 (11738088_a_at) / Fold change /veh C5orf56 (11738088_a_at) / RFU OLFML3 (11715873_a_at) / Fold change /veh OLFML3 (11715873_a_at) / RFU LOC100653217 /// NTM (11731650_a_at) / Fold change /veh LOC100653217 /// NTM (11731650_a_at) / RFU MAPK11 (11762145_a_at) / Fold change /veh MAPK11 (11762145_a_at) / RFU FIZ1 (11724087_x_at) / Fold change /veh FIZ1 (11724087_x_at) / RFU OASL (11726364_x_at) / Fold change /veh OASL (11726364_x_at) / RFU SOX15 (11748057_x_at) / Fold change /veh SOX15 (11748057_x_at) / RFU CD79A (11719716_a_at) / Fold change /veh CD79A (11719716_a_at) / RFU HIST1H1D (11736915_at) / Fold change /veh HIST1H1D (11736915_at) / RFU CASKIN2 (11723855_a_at) / Fold change /veh CASKIN2 (11723855_a_at) / RFU LOC730098 (11760151_x_at) / Fold change /veh LOC730098 (11760151_x_at) / RFU OR4N2 (11742367_at) / Fold change /veh OR4N2 (11742367_at) / RFU PRRT2 (11749266_a_at) / Fold change /veh PRRT2 (11749266_a_at) / RFU SNX32 (11753110_a_at) / Fold change /veh SNX32 (11753110_a_at) / RFU CDHR5 (11726645_a_at) / Fold change /veh CDHR5 (11726645_a_at) / RFU RCAN1 (11760418_a_at) / Fold change /veh RCAN1 (11760418_a_at) / RFU FAM167A (11723789_a_at) / Fold change /veh FAM167A (11723789_a_at) / RFU FAM26E (11764081_at) / Fold change /veh FAM26E (11764081_at) / RFU ISYNA1 (11749810_s_at) / Fold change /veh ISYNA1 (11749810_s_at) / RFU ACY1 (11761880_at) / Fold change /veh ACY1 (11761880_at) / RFU 11764098_at / Fold change /veh 11764098_at / RFU SAMD14 (11745864_x_at) / Fold change /veh SAMD14 (11745864_x_at) / RFU NPB (11741838_a_at) / Fold change /veh NPB (11741838_a_at) / RFU TMPRSS6 (11731388_a_at) / Fold change /veh TMPRSS6 (11731388_a_at) / RFU KRTAP10-2 (11738614_at) / Fold change /veh KRTAP10-2 (11738614_at) / RFU ARHGAP8 /// PRR5-ARHGAP8 (11727945_x_at) / Fold change /veh ARHGAP8 /// PRR5-ARHGAP8 (11727945_x_at) / RFU KRTAP5-7 /// NADSYN1 (11734609_at) / Fold change /veh KRTAP5-7 /// NADSYN1 (11734609_at) / RFU RASL12 (11751679_a_at) / Fold change /veh RASL12 (11751679_a_at) / RFU CDKN2B (11736163_a_at) / Fold change /veh CDKN2B (11736163_a_at) / RFU PRF1 (11729649_at) / Fold change /veh PRF1 (11729649_at) / RFU, ZNF638 /// ZNF638-IT1 / Fold change vs veh, ZNF638 /// ZNF638-IT1 / RFU, PANK3 / Fold change vs veh, PANK3 / RFU, SH3YL1 / Fold change vs veh, SH3YL1 / RFU, ZEB2 / Fold change vs veh, ZEB2 / RFU, NRIP1 / Fold change vs veh, NRIP1 / RFU, PTTG1IP / Fold change vs veh, PTTG1IP / RFU, CAPN2 / Fold change vs veh, CAPN2 / RFU, MED14 / Fold change vs veh, MED14 / RFU, SNORA58 / Fold change vs veh, SNORA58 / RFU, C1orf63 / Fold change vs veh, C1orf63 / RFU, LRRFIP1 / Fold change vs veh, LRRFIP1 / RFU, NDUFAF7 / Fold change vs veh, NDUFAF7 / RFU, SLC12A2 / Fold change vs veh, SLC12A2 / RFU, IBTK / Fold change vs veh, IBTK / RFU, ESF1 / Fold change vs veh, ESF1 / Fold change vs veh, TMEM50B / RFU, TAOK1 / Fold change vs veh, TAOK1 / RFU, ACBD3 / Fold change vs veh, ACBD3 / RFU, TMA16 / Fold change vs veh, TMA16 / RFU, RWDD3 / Fold change vs veh, RWDD3 / RFU, BCAT1 / Fold change vs veh, BCAT1 / RFU, EDEM3 / Fold change vs veh, EDEM3 / RFU, TMEM33 / Fold change vs veh, TMEM33 / RFU, WDR75 / Fold change vs veh, WDR75 / RFU, AHCTF1 / Fold change vs veh, AHCTF1 / RFU, TFRC / Fold change vs veh, TFRC / RFU, ZDHHC17 / Fold change vs veh, ZDHHC17 / RFU, NOM1 / Fold change vs veh, NOM1 / RFU, ARL8B / Fold change vs veh, ARL8B / RFU, ZBTB11 / Fold change vs veh, ZBTB11 / RFU, TAMM41 / Fold change vs veh, TAMM41 / RFU, KIAA1704 /// LOC100996395 / Fold change vs veh, KIAA1704 /// LOC100996395 / RFU, ING1 / Fold change vs veh, ING1 / RFU, TRMT61B / Fold change vs veh, TRMT61B / RFU, FUBP3 / Fold change vs veh, FUBP3 / RFU, TP53 / Fold change vs veh, TP53 / RFU, TNKS2 / Fold change vs veh, TNKS2 / RFU, ZFP14 / Fold change vs veh, ZFP14 / RFU, ACTR2 / Fold change vs veh, ACTR2 / RFU, PPP3R1 / Fold change vs veh, PPP3R1 / RFU, PIK3R1 / Fold change vs veh, PIK3R1 / RFU, HNRNPA1 / Fold change vs veh, HNRNPA1 / RFU, RNF170 / Fold change vs veh, RNF170 / RFU, ZNF28 / Fold change vs veh, ZNF28 / RFU, RNGTT / Fold change vs veh, RNGTT / RFU, OGT / Fold change vs veh, OGT / RFU, BRD1 / Fold change vs veh, BRD1 / RFU, MARS / Fold change vs veh, MARS / RFU, ZNF655 / Fold change vs veh, ZNF655 / RFU, FAHD1 / Fold change vs veh, FAHD1 / RFU, BDP1 / Fold change vs veh, BDP1 / RFU, LRRCC1 / Fold change vs veh, LRRCC1 / RFU, ARID1A / Fold change vs veh, ARID1A / RFU, ZNF146 / Fold change vs veh, ZNF146 / RFU, ZNF330 / Fold change vs veh, ZNF330 / RFU, GPN3 / Fold change vs veh, GPN3 / RFU, C9orf123 / Fold change vs veh, C9orf123 / RFU, N4BP2L2 / Fold change vs veh, N4BP2L2 / RFU, ARFIP1 / Fold change vs veh, ARFIP1 / RFU, FAM179B / Fold change vs veh, FAM179B / RFU, BCL10 / Fold change vs veh, BCL10 / RFU, UHRF1BP1L / Fold change vs veh, UHRF1BP1L / RFU, BET1 / Fold change vs veh, BET1 / RFU, CNOT2 / Fold change vs veh, CNOT2 / RFU, ZNF268 / Fold change vs veh, ZNF268 / Fold change vs veh, ZNF507 / RFU, DGCR2 / Fold change vs veh, DGCR2 / RFU, WDSUB1 / Fold change vs veh, WDSUB1 / Fold change vs veh, HSP90B1 /// MIR3652 / RFU, ADSS / Fold change vs veh, ADSS / RFU, GK / Fold change vs veh, GK / RFU, ZNF148 / Fold change vs veh, ZNF148 / RFU, TAF9 / Fold change vs veh, TAF9 / RFU, SLC1A5 / Fold change vs veh, SLC1A5 / RFU, SLMO2 / Fold change vs veh, SLMO2 / RFU, ABCC4 / Fold change vs veh, ABCC4 / RFU, LOC101060439 /// RAP1B / Fold change vs veh, LOC101060439 /// RAP1B / RFU, RFX7 / Fold change vs veh, RFX7 / RFU, GTPBP10 / Fold change vs veh, GTPBP10 / RFU, CNEP1R1 / Fold change vs veh, CNEP1R1 / RFU, BIVM-ERCC5 /// ERCC5 / Fold change vs veh, BIVM-ERCC5 /// ERCC5 / RFU, ILF3 / Fold change vs veh, ILF3 / RFU 11762660_at / Fold change /veh 11762660_at / RFU VCAN (11757783_s_at) / Fold change /veh VCAN (11757783_s_at) / RFU DDX43 (11728927_at) / Fold change /veh DDX43 (11728927_at) / RFU KRT8 (11758188_x_at) / Fold change /veh KRT8 (11758188_x_at) / RFU NKD1 (11759106_at) / Fold change /veh NKD1 (11759106_at) / RFU SRD5A1 (11742802_a_at) / Fold change /veh SRD5A1 (11742802_a_at) / RFU TPSAB1 /// TPSB2 (11721975_s_at) / Fold change /veh TPSAB1 /// TPSB2 (11721975_s_at) / RFU GSTM3 (11746129_a_at) / Fold change /veh GSTM3 (11746129_a_at) / RFU IL23R (11737362_x_at) / Fold change /veh IL23R (11737362_x_at) / RFU TMEM51 (11727254_a_at) / Fold change /veh TMEM51 (11727254_a_at) / RFU PIWIL2 (11732686_x_at) / Fold change /veh PIWIL2 (11732686_x_at) / RFU ORM1 (11744905_x_at) / Fold change /veh ORM1 (11744905_x_at) / RFU CCDC152 (11743942_at) / Fold change /veh CCDC152 (11743942_at) / RFU ECM1 (11717891_a_at) / Fold change /veh ECM1 (11717891_a_at) / RFU IL23R (11748794_a_at) / Fold change /veh IL23R (11748794_a_at) / RFU TNFAIP8L3 (11732012_x_at) / Fold change /veh TNFAIP8L3 (11732012_x_at) / RFU MBOAT4 (11741988_at) / Fold change /veh MBOAT4 (11741988_at) / RFU 11764193_at / Fold change /veh 11764193_at / RFU TMEM53 (11763286_at) / Fold change /veh TMEM53 (11763286_at) / RFU MAGEB2 (11727129_at) / Fold change /veh MAGEB2 (11727129_at) / RFU TMEM200A (11744735_a_at) / Fold change /veh TMEM200A (11744735_a_at) / RFU CCDC152 (11751479_a_at) / Fold change /veh CCDC152 (11751479_a_at) / RFU FAM211A (11726209_a_at) / Fold change /veh FAM211A (11726209_a_at) / RFU RGS16 (11746705_a_at) / Fold change /veh RGS16 (11746705_a_at) / RFU VCAN (11755009_s_at) / Fold change /veh VCAN (11755009_s_at) / RFU RHOB (11743442_s_at) / Fold change /veh RHOB (11743442_s_at) / RFU RGS16 (11720943_a_at) / Fold change /veh RGS16 (11720943_a_at) / RFU RGS16 (11720944_at) / Fold change /veh RGS16 (11720944_at) / RFU, VPS4B / Fold change vs veh, VPS4B / RFU, CREB1 / Fold change vs veh, CREB1 / RFU, DNAJC13 / Fold change vs veh, DNAJC13 / RFU, GNAQ / Fold change vs veh, GNAQ / RFU, CDK5R1 / Fold change vs veh, CDK5R1 / RFU, ZRANB3 / Fold change vs veh, ZRANB3 / RFU, CUL4A / Fold change vs veh, CUL4A / RFU, CCNY / Fold change vs veh, CCNY / RFU, UFL1 / Fold change vs veh, UFL1 / RFU, COG3 / Fold change vs veh, COG3 / RFU, DIAPH2 / Fold change vs veh, DIAPH2 / RFU, SKA2 / Fold change vs veh, SKA2 / RFU, AFF3 / Fold change vs veh, AFF3 / RFU, LMF1 / Fold change vs veh, LMF1 / RFU, IPO11 / Fold change vs veh, IPO11 / RFU, DFFB / Fold change vs veh, DFFB / RFU, FOXP1 / Fold change vs veh, FOXP1 / RFU, CARD8 / Fold change vs veh, CARD8 / RFU, STRN3 / Fold change vs veh, STRN3 / RFU, ADK / Fold change vs veh, ADK / RFU, RASSF2 / Fold change vs veh, RASSF2 / RFU, WIPF1 / Fold change vs veh, WIPF1 / RFU, LARP1B / Fold change vs veh, LARP1B / RFU, RASA1 / Fold change vs veh, RASA1 / RFU, RB1 / Fold change vs veh, RB1 / RFU, PPFIA1 / Fold change vs veh, PPFIA1 / RFU, MAT2A / Fold change vs veh, MAT2A / RFU, CCT5 / Fold change vs veh, CCT5 / RFU, WDR92 / Fold change vs veh, WDR92 / RFU, CUX1 / Fold change vs veh, CUX1 / RFU, TTC7A / Fold change vs veh, TTC7A / RFU, TMEM135 / Fold change vs veh, TMEM135 / RFU, DEPTOR / Fold change vs veh, DEPTOR / RFU, CPM / Fold change vs veh, CPM / RFU, DNAJB6 / Fold change vs veh, DNAJB6 / RFU, CACNA2D3 / Fold change vs veh, CACNA2D3 / RFU, DTX4 / Fold change vs veh, DTX4 / RFU, TFCP2 / Fold change vs veh, TFCP2 / RFU, GMCL1 /// GMCL1P1 / Fold change vs veh, GMCL1 /// GMCL1P1 / RFU, AEBP2 / Fold change vs veh, AEBP2 / RFU, SNHG1 /// SNORD22 /// SNORD25 /// SNORD26 /// SNORD27 /// SNORD28 /// SNORD29 /// SNORD31 / Fold change vs veh, SNHG1 /// SNORD22 /// SNORD25 /// SNORD26 /// SNORD27 /// SNORD28 /// SNORD29 /// SNORD31 / Fold change (Aza/veh), C12orf56 (ProbeSet 11735607_a_at) / Fold change (ACY-1035/veh), C12orf56 (ProbeSet 11735607_a_at) / Fold change (Aza/veh), FGFR1OP (ProbeSet 11751329_s_at) / Fold change (ACY-1035/veh), FGFR1OP (ProbeSet 11751329_s_at) / Fold change (Aza/veh), VPS36 (ProbeSet 11739960_a_at) / Fold change (ACY-1035/veh), VPS36 (ProbeSet 11739960_a_at) / RFU SYPL1 (11715823_x_at) / Fold change /veh SYPL1 (11715823_x_at) / RFU IGFBP7 (11715501_s_at) / Fold change /veh IGFBP7 (11715501_s_at) / RFU REEP3 (11722064_at) / Fold change /veh REEP3 (11722064_at) / RFU IGLL1 (11728026_x_at) / Fold change /veh IGLL1 (11728026_x_at): dose or concentration left out as unconfirmed
Settings: ProbeSet 11731610_x_at; LIST B

Nc1ccc(-c2cccs2)cc1NC(=O)c1ccc2c(c1)cc(C1CC1)n2CCN1CCOCC1 [ACY-1035]
Fold change vs veh, KIAA1704 /// LOC100996395: 0.91
